Results reported in article PMC5198511 (Molecular Pharmacology, 2017).

Columns and labels:
[1] = Immobilized artificial membrane chromatography; assay type: physicochemical; conditions: IAM chromatography, pH 7.4
LogD7.4 measurement = assay type: physicochemical; conditions: 1-octanol/phosphate buffer, pH 7.4

- log KIAM [1]: −0.09
- logD (LogD7.4 measurement): < -0.8
SMILES: CCNC(=O)[C@H]1O[C@@H](n2cnc3c(N)nc(NCCc4ccc(CCC(=O)O)cc4)nc32)[C@H](O)[C@@H]1O [Compound 3ac]
